This note sets out measurements from ChEMBL document CHEMBL3045228, “QSAR study of a series of acyl coenzyme A (CoA): cholesterol acyltransferase inhibitors using genetic function approximation” (Med Chem Res, 2011).

This assay can be described thus: Inhibition of Acyl-coenzyme A:cholesterol acyltransferase (unknown origin) assessed as intracellular cholesterol esterification by cell based assay. Particulars: Homo sapiens.

In the case of `CCCCCC(C)N(Cc1ccc(OCC(C)C)cc1)C(Nc1ccc(OC)cc1OC)=C1C(=O)OC(C)(C)OC1=O` (centres undefined), the IC50 runs as follows: (read-out: IC50) 550 nM; (read-out: pIC50 (converted)) 550 nM.

For `COc1ccc(NC(NCCCCCCCCc2ccc(C(C)(C)C)cc2)=C2C(=O)OC(C)(C)OC2=O)c(OC)c1`, the IC50 reads like this: (read-out: IC50) 900 nM; (read-out: pIC50 (converted)) 899 nM.

Turning to `COc1ccc(NC(NCc2ccc(C(C)(C)C)cc2)=C2C(=O)OC(C)(C)OC2=O)c(OC)c1`, the IC50 was 260 nM (read-out: IC50) and 260 nM (read-out: pIC50 (converted)).

Consider `CCCCCC(C)N(Cc1ccc(CC(C)(C)C)cc1)C(Nc1ccc(OC)cc1OC)=C1C(=O)OC(C)(C)OC1=O` (centres undefined), for which the IC50 is, setting by setting: (read-out: IC50) 830 nM; (read-out: pIC50 (converted)) 830 nM.

Regarding `COc1ccc(NC(=C2C(=O)OC(C)(C)OC2=O)N(Cc2ccc(CC(C)(C)C)cc2)CC2CCCC2c2ccccc2)c(OC)c1` (centres undefined), the IC50 is, setting by setting: (read-out: IC50) 290 nM; (read-out: pIC50 (converted)) 290 nM.

For the compound `COc1ccc(NC(NCCc2ccccc2)=C2C(=O)OC(C)(C)OC2=O)c(OC)c1`, the IC50 was 2800 nM (read-out: IC50) and 2800 nM (read-out: pIC50 (converted)).

With `CCCCCc1ccc(CCCCCCCCNC(Nc2ccc(OC)cc2OC)=C2C(=O)OC(C)(C)OC2=O)cc1`, the IC50 (read-out: IC50) was 840 nM and the IC50 (read-out: pIC50 (converted)) was 839 nM.

Consider `Cc1cc(N(C)C)cc(C)c1NC(NCCCCCCCCc1ccc(C(C)(C)C)cc1)=C1C(=O)OC(C)(C)OC1=O`, for which the IC50 is, setting by setting: (read-out: IC50) 980 nM; (read-out: pIC50 (converted)) 979 nM.

Consider `CCCCCC(C)N(Cc1ccc(C(C)(C)C)cc1)C(Nc1cc(OC)c(OC)c(OC)c1)=C1C(=O)OC(C)(C)OC1=O` (centres undefined), for which the IC50 (read-out: IC50) came to 770 nM and the IC50 (read-out: pIC50 (converted)) was 769 nM.

Consider `CCCCCC(C)N(Cc1ccc(C(C)(C)C)cc1)C(Nc1ccc(N(C)C)cc1)=C1C(=O)OC(C)(C)OC1=O` (centres undefined), for which the IC50 (read-out: IC50) was 250 nM and the IC50 (read-out: pIC50 (converted)) is 250 nM.

On to `CC(C)CCOc1ccc(CCCCCCCCNC(Nc2ccc(N(C)C)cc2)=C2C(=O)OC(C)(C)OC2=O)cc1`, for which the IC50 (read-out: IC50) came out at 370 nM and the IC50 (read-out: pIC50 (converted)) was 370 nM.

For the compound `CCCCCCOc1ccc(NC(NCCCCCCCCc2ccc(C(C)(C)C)cc2)=C2C(=O)OC(C)(C)OC2=O)cc1`, the IC50 is 500 nM (read-out: IC50) and 500 nM (read-out: pIC50 (converted)).

On to `CC1(C)OC(=O)C(=C(NCCCCCCCCc2ccc(C(C)(C)C)cc2)Nc2ccc(Oc3ccccc3)cc2)C(=O)O1`, for which the IC50 by setting is: (read-out: IC50) 920 nM; (read-out: pIC50 (converted)) 920 nM.

In the case of `CCCCCC(C)N(Cc1ccc(C(C)(C)C)cc1)C(Nc1ccc(OCCCC)cc1)=C1C(=O)OC(C)(C)OC1=O` (centres undefined), the IC50 is, setting by setting: (read-out: IC50) 230 nM; (read-out: pIC50 (converted)) 230 nM.

`COc1ccc(NC(NCCCCCCCCc2ccc(CC(C)C)cc2)=C2C(=O)OC(C)(C)OC2=O)c(OC)c1`: the IC50 by setting is: (read-out: IC50) 910 nM; (read-out: pIC50 (converted)) 910 nM.

As for `CCCCCC(C)N(Cc1ccc(CC(C)C)cc1)C(Nc1ccc(OC)cc1OC)=C1C(=O)OC(C)(C)OC1=O` (centres undefined), the IC50 was 240 nM (read-out: IC50) and 240 nM (read-out: pIC50 (converted)).

As to `CCCCCC(C)N(Cc1ccc(CC(C)(C)C)cc1)C(Nc1c(C)cc(N(C)C)cc1C)=C1C(=O)OC(C)(C)OC1=O` (centres undefined), the IC50 is 380 nM (read-out: IC50) and 380 nM (read-out: pIC50 (converted)).

For `CCCCCC(C)N(Cc1ccc(OC(C)CCC)cc1)C(Nc1ccc(OC)cc1OC)=C1C(=O)OC(C)(C)OC1=O` (centres undefined), the IC50 by setting is: (read-out: IC50) 540 nM; (read-out: pIC50 (converted)) 540 nM.

Turning to `CCCCCCC(CCCCCC)N(Cc1ccc(CC(C)C)cc1)C(Nc1ccc(N(C)C)cc1)=C1C(=O)OC(C)(C)OC1=O`, the IC50 (read-out: IC50) came out at 44 nM and the IC50 (read-out: pIC50 (converted)) is 44 nM.

With `CCCCCC(C)N(Cc1ccc(OCCC(C)C)cc1)C(Nc1ccc(N(C)C)cc1)=C1C(=O)OC(C)(C)OC1=O` (centres undefined), the IC50 is 210 nM (read-out: IC50) and 210 nM (read-out: pIC50 (converted)).

In the case of `COc1ccc(NC(=C2C(=O)OC(C)(C)OC2=O)N(Cc2ccc(CC(C)C)cc2)C(C)CCCC(C)C)c(OC)c1` (centres undefined), the IC50 is, setting by setting: (read-out: IC50) 370 nM; (read-out: pIC50 (converted)) 370 nM.

For `CCCCCc1ccc(CN(C(Nc2ccc(OC)cc2OC)=C2C(=O)OC(C)(C)OC2=O)C(C)CCCCC)cc1` (centres undefined), the IC50 is 360 nM (read-out: IC50) and 360 nM (read-out: pIC50 (converted)).

For the compound `CCCCCc1ccc(CN(C(Nc2ccc(N(C)C)cc2)=C2C(=O)OC(C)(C)OC2=O)C(C)CCCCC)cc1` (centres undefined), the IC50 reads like this: (read-out: IC50) 260 nM; (read-out: pIC50 (converted)) 260 nM.

In the case of `CC(C)CCCC(C)N(Cc1ccc(CC(C)C)cc1)C(Nc1ccc(N(C)C)cc1)=C1C(=O)OC(C)(C)OC1=O` (centres undefined), the IC50 reads like this: (read-out: IC50) 270 nM; (read-out: pIC50 (converted)) 270 nM.

Turning to `CCCCCCOc1ccc(NC(=C2C(=O)OC(C)(C)OC2=O)N(Cc2ccc(CC(C)C)cc2)C(C)CCCCC)cc1` (centres undefined), the IC50 by setting is: (read-out: IC50) 410 nM; (read-out: pIC50 (converted)) 410 nM.

With `CCCCCC(C)N(Cc1ccc(CC(C)C)cc1)C(Nc1ccc(N(C)C)cc1C)=C1C(=O)OC(C)(C)OC1=O` (centres undefined), the IC50 (read-out: IC50) worked out at 350 nM and the IC50 (read-out: pIC50 (converted)) is 350 nM.

Regarding `CCCCCC(C)N(Cc1ccc(CC(C)(C)C)cc1)C(Nc1ccc(N(C)C)cc1C)=C1C(=O)OC(C)(C)OC1=O` (centres undefined), the IC50 by setting is: (read-out: IC50) 260 nM; (read-out: pIC50 (converted)) 260 nM.

Take `COc1cc(OC)c(NC(NCCCCCCCCc2ccc(CC(C)(C)C)cc2)=C2C(=O)OC(C)(C)OC2=O)c(OC)c1`: the IC50 reads like this: (read-out: IC50) 700 nM; (read-out: pIC50 (converted)) 700 nM.

Regarding `CCCCC(CC)N(Cc1ccc(CC(C)(C)C)cc1)C(Nc1ccc(OC)cc1OC)=C1C(=O)OC(C)(C)OC1=O` (centres undefined), the IC50 is, setting by setting: (read-out: IC50) 540 nM; (read-out: pIC50 (converted)) 540 nM.

For `CCCCCC(C)N(Cc1ccc(CCC(C)C)cc1)C(Nc1ccc(N(C)C)cc1C)=C1C(=O)OC(C)(C)OC1=O` (centres undefined), the IC50 is 160 nM (read-out: IC50) and 160 nM (read-out: pIC50 (converted)).

In the case of `CCCCC(CC)N(Cc1ccc(CC(C)(C)C)cc1)C(Nc1ccc(N(C)C)cc1)=C1C(=O)OC(C)(C)OC1=O` (centres undefined), the IC50 (read-out: IC50) was found to be 190 nM and the IC50 (read-out: pIC50 (converted)) was 640 nM.

With `CCCCCC(C)N(Cc1ccc(OCC(C)C)cc1)C(Nc1ccc(N(C)C)cc1)=C1C(=O)OC(C)(C)OC1=O` (centres undefined), the IC50 reads like this: (read-out: IC50) 90 nM; (read-out: pIC50 (converted)) 89.9 nM.

For `CCCCCC(C)N(Cc1ccc(CC(C)(C)C)cc1)C(Nc1ccc(C)cc1C)=C1C(=O)OC(C)(C)OC1=O` (centres undefined), the IC50 (read-out: IC50) worked out at 490 nM and the IC50 (read-out: pIC50 (converted)) is 490 nM.

In the case of `COc1ccc(NC(NCCCCCCCCCCCc2ccc(C(C)(C)C)cc2)=C2C(=O)OC(C)(C)OC2=O)c(OC)c1`, the IC50 runs as follows: (read-out: IC50) 2300 nM; (read-out: pIC50 (converted)) 2300 nM.

`COc1cc(NC(NCCCCCCCCc2ccc(C(C)(C)C)cc2)=C2C(=O)OC(C)(C)OC2=O)cc(OC)c1OC`: the IC50 (read-out: IC50) amounted to 2800 nM and the IC50 (read-out: pIC50 (converted)) is 2800 nM.

Consider `CC(C)CCc1ccc(CN(C(Nc2ccc(N(C)C)cc2)=C2C(=O)OC(C)(C)OC2=O)C(CC(C)C)CC(C)C)cc1`, for which the IC50 was 1300 nM (read-out: IC50) and 1300 nM (read-out: pIC50 (converted)).

`CC(C)(C)Cc1ccc(CCCCCCCNC(Nc2cc(C(C)(C)C)c(O)c(C(C)(C)C)c2)=C2C(=O)OC(C)(C)OC2=O)cc1`: the IC50 was 240 nM (read-out: IC50) and 240 nM (read-out: pIC50 (converted)).

As for `CN(C)c1ccc(NC(NCCCCCCCCc2ccc(C(C)(C)C)cc2)=C2C(=O)OC(C)(C)OC2=O)cc1`, the IC50 was 1100 nM (read-out: IC50) and 1100 nM (read-out: pIC50 (converted)).

For `COc1ccc(NC(NCCCCCCCCc2ccc(OCCC(C)C)cc2)=C2C(=O)OC(C)(C)OC2=O)c(OC)c1`, the IC50 (read-out: IC50) turned out to be 1500 nM and the IC50 (read-out: pIC50 (converted)) was 1500 nM.

Take `COc1cc(NC(NCCCCCCCCc2ccc(OCCC(C)C)cc2)=C2C(=O)OC(C)(C)OC2=O)cc(OC)c1OC`: the IC50 by setting is: (read-out: IC50) 3500 nM; (read-out: pIC50 (converted)) 3500 nM.

In the case of `CCCCOc1ccc(NC(=C2C(=O)OC(C)(C)OC2=O)N(Cc2ccc(C(C)(C)C)cc2)C(C)CCCC(C)C)cc1` (centres undefined), the IC50 is, setting by setting: (read-out: IC50) 690 nM; (read-out: pIC50 (converted)) 690 nM.

With `COc1ccc(NC(=C2C(=O)OC(C)(C)OC2=O)N(Cc2ccc(C(C)(C)C)cc2)C(C)CCCC(C)C)c(OC)c1` (centres undefined), the IC50 reads like this: (read-out: IC50) 230 nM; (read-out: pIC50 (converted)) 230 nM.

For `CC(C)Cc1ccc(CN(C(Nc2ccc(N(C)C)cc2)=C2C(=O)OC(C)(C)OC2=O)C(C)CCCC(C)(C)O)cc1` (centres undefined), the IC50 is, setting by setting: (read-out: IC50) 5200 nM; (read-out: pIC50 (converted)) 5200 nM.

`CCCCCc1ccc(CN(C(Nc2ccc(N(C)C)cc2C)=C2C(=O)OC(C)(C)OC2=O)C(C)CCCCC)cc1` (centres undefined): the IC50 was 680 nM (read-out: IC50) and 242 nM (read-out: pIC50 (converted)).

As to `COc1ccc(NC(NCCCCCCCCc2ccc(CCC(C)C)cc2)=C2C(=O)OC(C)(C)OC2=O)c(OC)c1`, the IC50 runs as follows: (read-out: IC50) 3000 nM; (read-out: pIC50 (converted)) 3000 nM.

Take `COc1ccc(NC(=C2C(=O)OC(C)(C)OC2=O)N(Cc2ccc(CCC(C)C)cc2)C(CC(C)C)CC(C)C)c(OC)c1`: the IC50 (read-out: IC50) was 1300 nM and the IC50 (read-out: pIC50 (converted)) is 1300 nM.

On to `COc1ccc(NC(=C2C(=O)OC(C)(C)OC2=O)N(Cc2ccc(CC(C)C)cc2C)C(CO[SiH](C)C)CC(C)C)c(OC)c1` (centres undefined), for which the IC50 runs as follows: (read-out: IC50) 530 nM; (read-out: pIC50 (converted)) 530 nM.
